Assay results reported in patent US4234511A, “Dialkylamino-N,N-bis(phosphonoalkylene)alkylamines and use in aqueous systems as precipitation and corrosion inhibitors” (Buckman Laboratories, Inc., priority 1979, dated 1980).
Structures can show the parent of a compound that is named as a salt.

Assays:
[1] = Calcium Carbonate Antiprecipitation Tests; conditions: pH 9, 25° C., approx. 18 hours
Experimental: To evaluate the effect of the compounds of the present invention on the precipitation of calcium carbonate, measured volume of stock solution (prepared with demineralized water) of the phosphonic acids or their reaction product with epichlorohydrin were added to 100-ml portions of a calcium hydroxide solution (0.40 g Ca(OH)2 per liter). Then 100 ml of a sodium bicarbonate solution (0.50 g NaHCO3 per liter) was added to each portion of calcium hydroxide solution. The pH of each portion was adjusted to 9.00 (±0.05). The test solutions were then agitated on a rotary shaker for approximately 18 hours at a temperature of 25° C. At the end of this time insoluble material was removed by filtration with Whatman No. 4 filter paper and the calcium ion concentration in the filtrate was determined by titration with a standard ethylenediamine tetraacetic acid solution. The percent inhibition (Table 1) was calculated by comparing the test solution values with two controls included in every test series.

[2] = Corrosion inhibition, circulating Memphis tap water with mild steel coupons; conditions: initial pH 7.5, 50° C., three days
Experimental: The test apparatus included a sump, a flow circuit, a circulating pump and a heater. […] The test fluid was Memphis tap water with the pH adjusted to 7.5 and the temperature was maintained at 50° C.±2° C.
The test fluid containing various concentrations of the compositions described herein was circulated continuously through the system containing the test coupons for a period of three days. At the end of this period, the coupons were removed, cleaned and weighed. The corrosion rates were calculated in milligrams per square decimeter per day (MDD).

Compound | Inhibition of Calcium Carbonate Precipitation, percent inhibition ([1]; 1.0 parts per million) | Inhibition of Calcium Carbonate Precipitation, percent inhibition ([1]; 2.0 parts per million) | Inhibition of Calcium Carbonate Precipitation, percent inhibition ([1]; 3.0 parts per million) | Inhibition of Calcium Carbonate Precipitation, percent inhibition ([1]; 4.0 parts per million) | Inhibition of Calcium Carbonate Precipitation, percent inhibition ([1]; 5.0 parts per million) | Inhibition of Calcium Carbonate Precipitation, percent inhibition ([1]; 6.0 parts per million) | Inhibition of Calcium Carbonate Precipitation, percent inhibition ([1]; 7.0 parts per million) | Inhibition of Calcium Carbonate Precipitation, percent inhibition ([1]; 8.0 parts per million) | Inhibition of Calcium Carbonate Precipitation, percent inhibition ([1]; 9.0 parts per million) | Inhibition of Calcium Carbonate Precipitation, percent inhibition ([1]; 10.0 parts per million) | Corrosion rate, Average ([2]; 50 parts per million) | Corrosion rate, Copper Couple ([2]; 50 parts per million) | Corrosion rate, Sump 1 ([2]; 50 parts per million) | Corrosion rate, Sump 2 ([2]; 50 parts per million) | Corrosion Inhibition, Percent ([2]; 100 parts per million) | Corrosion rate, Average ([2]; 100 parts per million) | Corrosion rate, Copper Couple ([2]; 100 parts per million) | Corrosion rate, Sump 1 ([2]; 100 parts per million) | Corrosion rate, Sump 2 ([2]; 100 parts per million) | also measured
CN(C)CCN(CP(=O)(O)O)CP(=O)(O)O [F, 2-Dimethylamino-N',N'-bis(phosphonomethyl)ethylamine Hydrochloride] | 6.2% | 17.8% | 32.3% | 35.3% | 49.5% | 55.6% | 65.2% | 69.6% | 77.7% | 78.6% | 35.46 Miligrams per decimeter per day | 40.08 Miligrams per decimeter per day | 12.94 Miligrams per decimeter per day | 53.37 Miligrams per decimeter per day | 99.4% | 1.57 Miligrams per decimeter per day | 1.95 Miligrams per decimeter per day | 1.24 Miligrams per decimeter per day | 1.51 Miligrams per decimeter per day | Corrosion Inhibition, Percent ([2]; 150 parts per million): 99.6%; Corrosion rate, Average ([2]; 150 parts per million): 1.06 Miligrams per decimeter per day; Corrosion rate, Copper Couple ([2]; 150 parts per million): 0.98 Miligrams per decimeter per day; Corrosion rate, Sump 1 ([2]; 150 parts per million): 1.15 Miligrams per decimeter per day; Corrosion rate, Sump 2 ([2]; 150 parts per million): 1.06 Miligrams per decimeter per day
CN(C)CCCN(CP(=O)(O)O)CP(=O)(O)O [A, 3-(N,N-Dimethylamino)-N',N'-bis(phosphonomethyl)propylamine Hydrochloride] | 0% | 0% | 4.2% | 41.6% | 50.9% | 54.5% | 64.1% | 60.6% | 69.4% | 67.5% | 1.51 Miligrams per decimeter per day | 3.01 Miligrams per decimeter per day | 1.33 Miligrams per decimeter per day | 0.18 Miligrams per decimeter per day | 99.5% | 1.24 Miligrams per decimeter per day | 1.06 Miligrams per decimeter per day | 0.89 Miligrams per decimeter per day | 1.77 Miligrams per decimeter per day | Corrosion Inhibition, Percent ([2]; 50 parts per million): 99.4%; Corrosion Inhibition, Percent ([2]; 200 parts per million): 99.2%; Corrosion rate, Average ([2]; 200 parts per million): 2.13 Miligrams per decimeter per day; Corrosion rate, Copper Couple ([2]; 200 parts per million): 3.90 Miligrams per decimeter per day; Corrosion rate, Sump 1 ([2]; 200 parts per million): 1.15 Miligrams per decimeter per day; Corrosion rate, Sump 2 ([2]; 200 parts per million): 1.33 Miligrams per decimeter per day
